Data: US10477864B2, “Microbiocidal quinoline (thio)carboxamide derivatives” (priority 2016, dated 2019)

Tests used:
[1] = tested on: Fusarium culmorum; test: microbe, parasite or virus in culture; assay type: cell-based; settings: read-out: control of Fusarium culmorum
[2] = tested on: Botryotinia fuckeliana (Botrytis cinerea); test: Botryotinia fuckeliana (Botrytis cinerea) / liquid culture (gray mould); assay type: cell-based; settings: 72 h, read-out: control of Botryotinia fuckeliana
[3] = tested on: Fusarium culmorum; test: whole plant or invertebrate; assay type: in vivo; settings: in Triticum aestivum, read-out: control of Fusarium culmorum
[4] = tested on: Glomerella lagenarium (Colletotrichum lagenarium); test: Glomerella lagenarium (Colletotrichum lagenarium) / liquid culture (anthracnose); assay type: cell-based; settings: Colletotrichum orbiculare; read-out: control of Glomerella lagenarium

Compound	inhibition of growth at 200 ppm [1]	melting point	inhibition of growth at 200 ppm [2]	pest or weed control at 200 ppm [3]	inhibition of growth at 200 ppm [4]
CC(Cc1ccccc1)(CC(F)(F)F)NC(=O)c1cnc2cccc(Cl)c2c1 (centres unmarked) [Compound E-68, N-(1-benzyl-3,3,3-trifluoro-1-methyl-propyl)-5-chloro-quinoline-3-carboxamide]	≥ 80%	85 to 88 °C	–	–	–
CC(C#N)(Cc1ccccc1Cl)NC(=O)c1cnc2c(F)cccc2c1 (centres unmarked) [Compound E-18, N-[2-(2-chlorophenyl)-1-cyano-1-methyl-ethyl]-8-fluoro-quinoline-3-carboxamide]	≥ 80%	198 to 203 °C	≥ 80%	–	–
CC(C)CC(C)(Cc1ccccc1)NC(=O)c1cnc2cccc(Cl)c2c1 (centres unmarked) [Compound E-64, N-(1-benzyl-1,3-dimethyl-butyl)-5-chloro-quinoline-3-carboxamide]	≥ 80%	50 to 60 °C	≥ 80%	–	–
CC(C)CC(C)(Cc1ccccc1)NC(=O)c1cnc2c(C#N)cccc2c1 (centres unmarked)	–	160 to 162 °C	–	–	–
CC(Cc1ccccc1)(CC(F)F)NC(=O)c1cnc2c(F)cccc2c1 (centres unmarked) [Compound E-95, N-(1-benzyl-3,3-difluoro-1-methyl-propyl)-8-fluoro-quinoline-3-carboxamide]	≥ 80%	–	≥ 80%	≥ 80%	≥ 80%
C[C@](Cc1ccccc1)(CC(F)(F)F)NC(=O)c1cnc2c(Cl)cccc2c1 [Compound F-35, N-[(1S)-1-benzyl-3,3,3-trifluoro-1-methyl-propyl]-8-chloro-quinoline-3-carboxamide]	≥ 80%	–	≥ 80%	≥ 80%	≥ 80%
C[C@@](Cc1ccccc1)(CC(F)F)NC(=O)c1cnc2c(F)cccc2c1 [Compound F-31, N-[(1R)-1-benzyl-3,3-difluoro-1-methyl-propyl]-8-fluoro-quinoline-3-carboxamide]	≥ 80%	–	≥ 80%	≥ 80%	≥ 80%
C[C@@](Cc1ccccc1)(CC(F)(F)F)NC(=O)c1cnc2c(Cl)cccc2c1 [Compound F-36, N-[(1R)-1-benzyl-3,3,3-trifluoro-1-methyl-propyl]-8-chloro-quinoline-3-carboxamide]	≥ 80%	–	≥ 80%	≥ 80%	≥ 80%
Cc1nc2c(Cl)cccc2cc1C(=O)NC(C)(Cc1ccccc1)CC(F)(F)F (centres unmarked) [Compound E-110, N-(1-benzyl-3,3,3-trifluoro-1-methyl-propyl)-8-chloro-2-methyl-quinoline-3-carboxamide]	≥ 80%	176 to 179 °C	≥ 80%	–	–
C=C(C)C[C@@](C)(Cc1ccccc1)NC(=O)c1cnc2c(F)c(F)ccc2c1 [Compound F-19, N-[(1S)-1-benzyl-1,3-dimethyl-but-3-enyl]-7,8-difluoro-quinoline-3-carboxamide]	≥ 80%	–	≥ 80%	≥ 80%	≥ 80%
Cc1cccc2cc(C(=O)N[C@](C)(Cc3ccccc3)CC(F)(F)F)cnc12 [Compound F-28, N-[(1R)-1-benzyl-3,3,3-trifluoro-1-methyl-propyl]-8-methyl-quinoline-3-carboxamide]	≥ 80%	–	≥ 80%	≥ 80%	≥ 80%
CC(Cc1ccccc1)(CC1CCC1)NC(=O)c1cnc2ccccc2c1 (centres unmarked) [Compound E-111, N-(1-benzyl-2-cyclobutyl-1-methyl-ethyl)quinoline-3-carboxamide]	≥ 80%	88 to 90 °C	≥ 80%	–	≥ 80%
CCCC(Cc1ccccc1)(NC(=O)c1cnc2c(F)cccc2c1)C(F)(F)F (centres unmarked) [Compound E-91, N-[1-benzyl-1-(trifluoromethyl)butyl]-8-fluoro-quinoline-3-carboxamide]	≥ 80%	–	≥ 80%	≥ 80%	≥ 80%
Cc1nc2c(F)cccc2cc1C(=O)N[C@@](C)(Cc1ccccc1)CC(F)(F)F [Compound F-33, N-[(1S)-1-benzyl-3,3,3-trifluoro-1-methyl-propyl]-8-fluoro-2-methyl-quinoline-3-carboxamide]	≥ 80%	–	≥ 80%	≥ 80%	≥ 80%
CC(C#N)(Cc1ccccc1F)NC(=O)c1cnc2ccccc2c1 (centres unmarked) [Compound E-4, N-[1-cyano-2-(2-fluorophenyl)-1-methyl-ethyl]quinoline-3-carboxamide]	≥ 80%	134 to 139 °C	–	–	–
Cc1ccc2cc(C(=O)NC(C)(Cc3ccccc3)CC(F)(F)F)cnc2c1 (centres unmarked) [Compound E-79, N-(1-benzyl-3,3,3-trifluoro-1-methyl-propyl)-7-methyl-quinoline-3-carboxamide]	≥ 80%	–	≥ 80%	≥ 80%	≥ 80%
CC(C)CC(C)(Cc1ccccc1)NC(=O)c1cc2cccc(F)c2nc1F (centres unmarked) [Compound E-125, N-(1-benzyl-1,3-dimethyl-butyl)-2,8-difluoro-quinoline-3-carboxamide]	≥ 80%	–	≥ 80%	≥ 80%	≥ 80%
CC(C)C[C@@](C)(Cc1ccccc1)NC(=O)c1cnc2cc(F)ccc2c1 [Compound F-14, N-[(1S)-1-benzyl-1,3-dimethyl-butyl]-7-fluoro-quinoline-3-carboxamide]	≥ 80%	–	≥ 80%	≥ 80%	≥ 80%
COc1ccc2ncc(C(=O)NC(C)(Cc3ccccc3)CC(C)C)cc2c1 (centres unmarked) [Compound E-63, N-(1-benzyl-1,3-dimethyl-butyl)-6-methoxy-quinoline-3-carboxamide]	–	102 to 105 °C	≥ 80%	–	–
CC(C)(Cc1ccccc1OC(F)(F)F)NC(=O)c1cnc2ccccc2c1 [Compound E-3, N-[1,1-dimethyl-2-[2-(trifluoromethoxy)phenyl]ethyl]quinoline-3-carboxamide]	–	145 to 149 °C	≥ 80%	–	–
C[C@@](Cc1ccccc1)(CC(F)(F)F)NC(=O)c1cnc2c(F)cccc2c1 [Compound F-12, N-[(1R)-1-benzyl-3,3,3-trifluoro-1-methyl-propyl]-8-fluoro-quinoline-3-carboxamide]	≥ 80%	–	≥ 80%	≥ 80%	≥ 80%
CC(C)C[C@](C)(Cc1ccccc1)NC(=O)c1cnc2cc(F)ccc2c1 [Compound F-13, N-[(1R)-1-benzyl-1,3-dimethyl-butyl]-7-fluoro-quinoline-3-carboxamide]	≥ 80%	–	≥ 80%	≥ 80%	≥ 80%
